From PubChem BioAssay (NCI) come the findings set out here.

Test systems include M14 melanoma; BT-549 breast; EKVX NSCLC; OVCAR-8 ovarian; T-47D breast; HOP-62 NSCLC; MDA-MB-231 breast; 786-0 renal; COLO 205 colon; RXF 393 renal; HCC-2998 colon; CCRF-CEM leukemia; SF-295 CNS; SF-539 CNS; MOLT-4 leukemia; UO-31 renal; SNB-19 CNS.
Assay in all cases: inhibition of tumour cell growth, NCI panel, 48 h

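Compound exposure: 48 hours, 5 concentrations, 96-well plates. At the TGI there is no net growth.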

Turning to `CC1(C)Oc2ccc3c(=O)c(-c4ccccc4)c(-c4ccccc4)oc3c2C1C(=O)O` (stereo unspecified), the TGI in the test on M14 melanoma, with BT-549 breast, in the test on EKVX NSCLC, with OVCAR-8 ovarian, in the test on T-47D breast and in the test with HOP-62 NSCLC was > 100 µM each time. In addition, the TGI in the test on MDA-MB-231 breast, in the test with 786-0 renal, with COLO 205 colon, with RXF 393 renal, with HCC-2998 colon and in the test on CCRF-CEM leukemia was > 100 µM each time. The TGI in the test with SF-295 CNS, with SF-539 CNS and in the test on MOLT-4 leukemia was > 100 µM throughout.

In the case of `O=C(NCCc1ccccc1)[C@H]1CCCC[C@@H]1CCO`, the TGI in the test with M14 melanoma, in the test on BT-549 breast, in the test on EKVX NSCLC, with OVCAR-8 ovarian, with T-47D breast and with UO-31 renal was > 100 µM in each case. For the same compound, the TGI in the test on HOP-62 NSCLC, in the test on MDA-MB-231 breast, with 786-0 renal, with COLO 205 colon, with RXF 393 renal and with HCC-2998 colon was > 100 µM each time. Further, the TGI in the test with CCRF-CEM leukemia, with SF-295 CNS, in the test on SF-539 CNS and in the test with MOLT-4 leukemia was > 100 µM in each case.

In the case of `N=c1oc2c(Br)cc(Br)cc2cc1C(=O)Nc1ccccn1`, the TGI in the test on M14 melanoma, in the test on BT-549 breast, with EKVX NSCLC, in the test on OVCAR-8 ovarian, in the test with T-47D breast and in the test on HOP-62 NSCLC was > 100 µM throughout. The TGI in the test with MDA-MB-231 breast, in the test on 786-0 renal, with SNB-19 CNS, in the test with COLO 205 colon, in the test on RXF 393 renal and in the test on HCC-2998 colon was > 100 µM throughout. The TGI in the test on CCRF-CEM leukemia, in the test on SF-539 CNS and in the test with MOLT-4 leukemia was > 100 µM each time.

As to `CC(C)(C)N1C(=O)c2ccccc2C1(O)C(F)(F)F` (stereo unspecified), the TGI in the test on M14 melanoma, with BT-549 breast, with EKVX NSCLC, in the test with OVCAR-8 ovarian, in the test with T-47D breast and in the test on UO-31 renal was > 100 µM throughout. For the same compound, the TGI in the test with HOP-62 NSCLC, with MDA-MB-231 breast, in the test with 786-0 renal, with SNB-19 CNS, in the test on COLO 205 colon and in the test on RXF 393 renal was > 100 µM throughout. The TGI in the test with HCC-2998 colon, in the test on CCRF-CEM leukemia, in the test with SF-295 CNS and in the test on SF-539 CNS was > 100 µM in each case.

Regarding `O=C1C=CC(=O)c2c1cc([N+](=O)[O-])c1ccoc21`, the TGI was 11.3 µM with M14 melanoma; 30.8 µM in the test on BT-549 breast; 41.1 µM in the test on EKVX NSCLC; > 72.3 µM in the test with OVCAR-8 ovarian; > 100 µM in the test with T-47D breast; 8.09 µM in the test on UO-31 renal. The TGI with HOP-62 NSCLC came to 31.8 µM; in the test on MDA-MB-231 breast, 52.7 µM; in the test on 786-0 renal, 3.35 µM; in the test on SNB-19 CNS it was 39.6 µM; with COLO 205 colon it was 8.63 µM; in the test on RXF 393 renal, 3.75 µM. Further, the TGI was 41.6 µM in the test on HCC-2998 colon, > 19.7 µM in the test on CCRF-CEM leukemia, 35.8 µM in the test with SF-295 CNS and 69.9 µM with SF-539 CNS.

For the compound `N#CC1(C#N)NC(c2cccnc2)C(C#N)(C#N)NC1c1cccnc1` (stereo unspecified), the TGI in the test with M14 melanoma, in the test on BT-549 breast, in the test with EKVX NSCLC, in the test with OVCAR-8 ovarian, with T-47D breast and in the test on HOP-62 NSCLC was > 100 µM throughout. The TGI with MDA-MB-231 breast, in the test on 786-0 renal, with COLO 205 colon, in the test on RXF 393 renal, in the test on HCC-2998 colon and in the test with CCRF-CEM leukemia was > 100 µM in each case. In addition, the TGI in the test with SF-295 CNS, in the test with SF-539 CNS and with MOLT-4 leukemia was > 100 µM throughout.

For the compound `CCN(CC)C(=S)SNc1ccc(S(N)(=O)=O)cc1`, the TGI is > 67.7 µM in the test with M14 melanoma; > 100 µM with BT-549 breast; > 100 µM with EKVX NSCLC; 66 µM in the test with OVCAR-8 ovarian; > 100 µM in the test on T-47D breast; > 100 µM with UO-31 renal. Further, the TGI with HOP-62 NSCLC was > 100 µM; with MDA-MB-231 breast, > 100 µM; in the test with 786-0 renal, > 71 µM; with SNB-19 CNS, > 100 µM; with COLO 205 colon, > 100 µM; with RXF 393 renal, > 82.8 µM. Further, the TGI with HCC-2998 colon, with SF-295 CNS, in the test with SF-539 CNS and in the test with MOLT-4 leukemia was > 100 µM in each case.

`CCc1n[nH]c(=O)n1N1C(=O)CCC1=O`: the TGI in the test on M14 melanoma, in the test with BT-549 breast, with EKVX NSCLC, in the test on OVCAR-8 ovarian, in the test with T-47D breast and with UO-31 renal was > 100 µM throughout. The TGI with HOP-62 NSCLC, in the test with MDA-MB-231 breast, in the test on 786-0 renal, in the test with SNB-19 CNS, in the test with COLO 205 colon and in the test on RXF 393 renal was > 100 µM in each case. Moreover, the TGI in the test with HCC-2998 colon, in the test on CCRF-CEM leukemia, in the test on SF-295 CNS and in the test on MOLT-4 leukemia was > 100 µM throughout.

Consider `Cc1cc(=O)oc2cc(SC(=O)N(C)C)ccc12`, for which the TGI in the test with M14 melanoma, with BT-549 breast, in the test on EKVX NSCLC, in the test with OVCAR-8 ovarian, with T-47D breast and in the test with UO-31 renal was > 100 µM throughout. For the same compound, the TGI in the test with HOP-62 NSCLC, in the test on MDA-MB-231 breast, in the test with 786-0 renal, in the test with SNB-19 CNS, in the test with COLO 205 colon and with RXF 393 renal was > 100 µM each time. Moreover, the TGI in the test on HCC-2998 colon, in the test on SF-295 CNS, in the test on SF-539 CNS and in the test on MOLT-4 leukemia was > 100 µM throughout.

As for `O=C(Nc1ccc(Cl)cc1)NS(=O)(=O)c1coc2ccccc2c1=O`, the TGI in the test with M14 melanoma, with BT-549 breast, with EKVX NSCLC, in the test with OVCAR-8 ovarian, in the test with T-47D breast and in the test on HOP-62 NSCLC was > 10 µM each time. In addition, the TGI in the test on MDA-MB-231 breast, in the test on 786-0 renal, in the test with SNB-19 CNS, with COLO 205 colon, in the test on RXF 393 renal and with HCC-2998 colon was > 10 µM throughout. The TGI in the test on CCRF-CEM leukemia, in the test with SF-295 CNS, in the test with SF-539 CNS and with MOLT-4 leukemia was > 10 µM each time.

Consider `O=c1[nH]c(=O)n(C2OC(CO)C(O)C2O)c2ncc(-c3ccc(-c4ccccc4)cc3)nc12` (stereo unspecified), for which the TGI in the test on BT-549 breast, with EKVX NSCLC, in the test on OVCAR-8 ovarian, in the test with T-47D breast, in the test with UO-31 renal and with HOP-62 NSCLC was > 20 µM each time. The TGI with MDA-MB-231 breast, in the test with 786-0 renal, in the test on SNB-19 CNS, in the test with COLO 205 colon, with RXF 393 renal and in the test on HCC-2998 colon was > 20 µM throughout. Besides, the TGI in the test with CCRF-CEM leukemia, in the test on SF-295 CNS, in the test on SF-539 CNS and with MOLT-4 leukemia was > 20 µM throughout.

In the case of `Cc1ccc(-c2cc(-c3ccc(Cl)cc3)nc(/N=C3\C(=O)N(CN4CCOCC4)c4ccccc43)n2)cc1`, the TGI was 87.4 µM in the test with M14 melanoma; 88.5 µM in the test with BT-549 breast; > 100 µM with EKVX NSCLC; 50.8 µM with OVCAR-8 ovarian; > 100 µM in the test with T-47D breast; > 100 µM in the test with HOP-62 NSCLC. Besides, the TGI in the test with MDA-MB-231 breast is > 100 µM; with 786-0 renal, 74.3 µM; with SNB-19 CNS, 42.2 µM; with COLO 205 colon, 79.8 µM; in the test on RXF 393 renal, 30.9 µM; in the test on HCC-2998 colon it was 34 µM. Further, the TGI in the test on CCRF-CEM leukemia is 88.2 µM; with SF-295 CNS, > 100 µM; with SF-539 CNS, 36.5 µM; in the test on MOLT-4 leukemia, 35.8 µM.

For the compound `Cc1cc2nc3c(C#N)c(-c4ccccc4)/c(=C\Nc4ccc(Cl)cc4)c(=O)n3c2cc1C`, the TGI in the test with M14 melanoma, with BT-549 breast, in the test with EKVX NSCLC, in the test with OVCAR-8 ovarian, in the test with T-47D breast and with UO-31 renal was > 100 µM throughout. The TGI in the test with HOP-62 NSCLC, in the test on MDA-MB-231 breast, in the test with 786-0 renal, in the test on SNB-19 CNS, with COLO 205 colon and with RXF 393 renal was > 100 µM in each case. The TGI in the test with HCC-2998 colon, with CCRF-CEM leukemia, with SF-295 CNS and in the test with SF-539 CNS was > 100 µM in each case.

As to `O=C(Nc1cc2c(=O)[nH]c3ccccc3c2oc1=O)c1cnccn1`, the TGI in the test on M14 melanoma, in the test with BT-549 breast, in the test on EKVX NSCLC, in the test on OVCAR-8 ovarian, in the test on T-47D breast and in the test with UO-31 renal was > 100 µM in each case. Further, the TGI in the test with MDA-MB-231 breast, in the test on 786-0 renal, in the test on SNB-19 CNS, with COLO 205 colon, in the test with RXF 393 renal and with HCC-2998 colon was > 100 µM in each case. For the same compound, the TGI with CCRF-CEM leukemia, in the test with SF-295 CNS, with SF-539 CNS and with MOLT-4 leukemia was > 100 µM each time.
